Here are results for 2 compounds from US11730689B2, “Process for treating hair” (Davines S.p.A., priority 2018, dated 2023).

Data set [1] is described as follows: Protection of hair from bleaching treatment (Example 4), sensorial analysis. Particulars: 3.5 g of a 12% water solution added to bleaching powder + Activator 40 vol. mixture; 30 minutes, treatment done twice.
Procedure: The following specific compositions were separately added to the mixture:
a) 3.5 g of a 12% Liposol maleate (Sabinsa Corporation) water solution;
b) 3.5 g of a 12% On Protection (7% Liposol maleate and 13% maleic) water solution;
e) 3.5 g of a 12% Olaplex® Bond Multiplier No 1 water solution;
The swatches were left on for 30 minutes at room temperature wrapped in an aluminum foil.
After that, the swatches were rinsed using cold running water and carefully washed using Davines SOLU shampoo of the Essential Hair Care line.
After the left on period, the swatches were rinsed using cold running water for removing the mixture and further treated with Davines SOLU shampoo of the Essential Hair Care line.
Then, 2.5 g of the conditioner MOMO of the Essential Hair Care line are applied; left on for one minute and subsequently rinsed using cold running water.
Finally, the swatches were towel dried, dried with an airdryer and combed using a fine-tooth comb.
Data set [2] in a line: Hair resistance to bleaching treatment (Example 5), tensile strength test. The settings on record: 9 g (maleic acid, liposol maleate: 20% water solution) added to 20 g bleaching powder + 40 g Activator 40 vol.; 50 minutes; On Protection = 13% maleic acid and 7% Liposol maleate; five measurements, 6 cm hair, 0.5 mm/sec.
Procedure: Five swatches of hair, weight and length standard, level 5, are treated with the coloration Davines Mask With Vibrachrom 4.0 mixed with the activator Davines Activator 20 vol., emulsion containing hydrogen peroxide, in a ratio of 1:1.5 as disclosed in the Davines manual and left on at room temperature for 35 minutes in a ratio of 1:1.5 as disclosed in the Davines manual.
During the left on period, the swatches were wrapped up in tinfoil and left at room temperature. After that, the swatches were rinsed with abundant running water and then washed with the Essential Hair Care SOLU shampoo of Davines line, washed and carefully dried with an airdryer.
At the end of the coloring process, the bleaching treatment starts.
Every swatch is decolored with 20 g of the bleaching powder Davines Mask Hair Bleaching Powder mixed with 40 g Davines Activator 40 vol.
Before application on the swatches, the mixtures are singularly added with the following solutions:
9 g Liposol maleate (Sabinsa Corporation)—20% water solution,
9 g Olaplex® Bond Multiplier No 1,
During the bleaching process, all the swatches are wrapped up in tinfoil, and left on for 50 minutes at room temperature.
After the left on period, the swatches are shampooed using Davines Hair Care DEDE shampoo and combed using a large-tooth comb.
A tensile strength test was carried out on all single swatches. […]
Data set [3] in a line: Hair fastness and easy bleaching (Example 7), tensile strength test. Set-up: species or system human. Particulars: 120 minutes.
Procedure: Four swatches of human hair, weight and length level 5, are used.
The swatches are bleached using a mixture of 20 g Davines Mask Hair Bleaching Powder and 40 g Davines Activator 20 vol. to which the following compounds are added:
b) 3.5 g 12% Liposol maleate (Sabinsa Corp.) in water,
c) 3.5 g 12% Olaplex® Bond Multiplier No 1 in water,
During the bleaching process, all the swatches are wrapped up in aluminum foil, and afterward they are left on for 120 minutes at room temperature.
After the left on period, every swatch is rinsed with abundant running water and washed with a Sodium Lauth-2 sulfate (Zetesol Les 2/SL®) 15% water solution and to a pH 7.5, and dried by combing with a large-tooth comb.
The swatches are subsequently washed until a complete removal of the product.
The Tensile Strength Test was made with a dynamometer Texture Analysis Plus (Extended Height) using pneumatic clamps.
The tensile strength of hair treated with different compositions was compared with the tensile strength of the non-bleached virgin swatch (positive reference) and the tensile strength of the swatch treated only with Davines Mask Hair Bleaching Powder without a protective agent (negative reference). Five measurements for each single 6 cm long hair, and at constant rate of 0.5 mm/sec., were made.
A short description of data set [4]: Color retention after reducing treatment (Example 11), evaluation by skilled technicians. Set-up: species or system human. Particulars: added to reducing composition and to neutralizing solution (1.8 ml per 100 ml) and applied afterwards as solution in 45 ml water, 7.5 minutes.
Procedure: Five hair samples from a human subject having a standard weight and a width and level 7 are colored with a Davines Mask with Vibrachrom 3.51. The coloring formulation was applied mixed with Davines Activator 20 vol., hydrogen peroxide emulsion, according to Davines operating manual, in a 1:1.5 ratios. The color was carefully applied in a quantity sufficient to give a homogeneous color to all fibers of the swatches. The mixture was left on for 35 minutes at room temperature.
After that, the swatches were carefully rinsed with shampoo Davines SOLU of the Essential Hair Care line, in order to eliminate the excess color.
After the left on period, the swatches were treated with the following reducing compositions:
1) 100 ml Davines Balance Curling System #1
(§1) 4) 100 ml Davines Balance Curling System #1 added with 1.8 ml of Olaplex® Bond Multiplier No 1,
On the wet and towel dried swatches, 5 grams of the above described reducing formulations are applied per swatch, and then left on for 30 minutes.
After the left on period, the swatches are washed with hot running water for 1 minute and left 10 minutes towel dried on air without any treatment, in order to stabilize the treatment.
Five neutralizing solutions are prepared: […]
The swatches were evaluated from skilled technicians as follows:
Data set [5] is described as follows: Color fastness to washing (Example 1): evaluation of rinsing waters. On the set-up: species or system human. The settings on record: 5 g of 2% water solution, 10 minutes at room temperature; rinsed 5 times with Sodium Laureth-2 Sulfate solution pH 7.5; FIG. 1; six swatches incl. non-treated.
Procedure: The coloring formulation was applied in a quantity sufficient to color all the fibers of the swatches, then wrapped in an aluminum foil and left on for 35 minutes.
Afterwards, the swatches were rinsed with Davines SOLU shampoo of the Essential Hair Care line, directly on the previously wet swatches and rinsed for 30 seconds in order to remove the mixture.
Then, swatches are treated as follows:
5 g of 2% liposol maleate (Sabinsa Corporation) water solution,
5 g of 2% Olaplex® Bond Multiplier No 1 water solution.
A non-treated swatch is used as reference.
The specific treatments are left on hair fora period of 10 minutes at room temperature.
After 10 minutes, the swatches are rinsed 5 times with a Sodium Laureth-2 Sulfate (Zetesol Les 2/SL®) solution to pH 7.5. The rinsing procedure consists on providing 1.5 g of the surfactant solution per swatch, putting it on the swatch, and massaging for 10 seconds, then rinsing.
The rinsing treatment is carried out dipping the individual swatch for 10 times in a beaker containing 100 g water, in order to collect the rinsing water.
A short description of data set [6]: Reducing treatment: hair conditioning (Example 9), evaluation by skilled technicians. On the set-up: species or system human. Particulars: 5 g of 2% water solution (On Protection: 10% in method, 2% in results), 2 x 7.30 minutes after reducing treatment; 5 washings.
Procedure: The coloring formulation was applied mixed with Davines Activator 20 vol., hydrogen peroxide emulsion, according to the Davines operating manual, in a 1:1.5 ratio.
The color was carefully applied in a quantity sufficient to color all the fibers of the swatches, then left on for 35 minutes at room temperature.
After that, the swatches were carefully rinsed with SOLU shampoo of the Essential Hair Care Davines line, in order to eliminate the excess color.
5 grams per swatch of the reducing formulation Davines Balance Curling System #1 are applied on the wet and towel dried swatches, and left on for 30 minutes.
After the left on period, the swatches are washed with water and ready to be treated with:
1) 5 g of maleic 2% water solution,
2) 5 g Liposol Maleate (Sabinsa Corporation) 2% water solution,
3) 5 g Olaplex® Bond Multiplier No 1, 2% water solution,
All the swatches are left on at room temperature for 7.30 minutes.
This treatment is repeated without rinsing, directly on the swatches, for 7.30 minutes (overall 15 minutes).
After the left on time, the swatches are rinsed with running water to eliminate the excess product.
(§2) Then, the swatches are carefully washed with a Sodium Laureth-2 sulfate (Zetesol Les 2/SL®) 15% and to a pH of 7.5. […]
Data set [7] is described as follows: Hair resistance to reducing treatment (Example 12), tensile strength test.
Procedure: Five level 5 natural hair swatches, weight and width standard, are washed with Essential Hair Care SOLU shampoo.
Then, the swatches are towel dried with adsorbing paper for removing excess water and subsequently enrolled on 1 cm diameter curlers.
2 ml of Davines Balance Curling System #1 perm are applied on all the curlers using a spout dispenser and left on for 30 minutes.
After that, every curler is rinsed with abundant water for 1 minute using cold running water.
Then, the swatches are neutralized using different neutralizing solutions:
2.5 g Davines Bouclè Biowaving System Extra Delicate Neutralizer (hydrogen peroxide 2.1%),
2.5 g liposol maleate (Sabinsa Corp.) 2% water solution,
2.5 g Olaplex® Bond Multiplier No 1, 10% water solution,
The swatches are left on for 7.30 minutes at room temperature.
Without rinsing, directly on the swatches, the application of the neutralizing solutions is repeated according to the same procedure for other 7.30 minutes, totally 15 minutes.
After the left on period, the excess product is rinsed with cold running water and the curlers are dried in an oven ISCO at 53° C.±1 for 4 hours.
The swatches are removed from the curlers and the curl sinuosity is evaluated using a camera.
as §2
Then, the tensile strength was evaluated. […]
A short description of data set [8]: Reducing treatment: curl resistance to repeated washings (Example 8). The settings on record: 1.8 ml added to 100 ml Balance Curling System #1 and to 100 ml Bouclè neutralizer (maleic acid, liposol maleate as 20% solution); 40 washings with 15% Sodium laureth-2 sulfate pH 7.5.
Procedure: 1) 100 ml Davines Balance Curling System #1,
3) 100 ml Davines Balance Curling System #1 added with 1.8 ml of a Liposol maleate 20% solution (Sabinsa Corporation),
as §1
The above described reducing formulations (2 ml per hair swatch) were applied and left on for 30 minutes.
After the left on period, the swatches were washed with hot running water for one minute and left 10 minutes towel dried on air without any treatment, in order to stabilize the treatment.
Five neutralizing solutions are prepared:
1) 100 ml neutralizing solution Davines Bouclè Biowaving System Extra Delicate Neutralizer hydrogen peroxide 2.1%,
3) 100 ml neutralizing solution Davines Bouclè Biowaving System Extra Delicate Neutralizer added with 1.8 ml of Liposol Maleate 20% water solution (Sabinsa Corporation),
4) 100 ml neutralizing solution Davines Bouclè Biowaving System Extra Delicate Neutralizer added with 1.8 ml Olaplex® Bond Multiplier No 1,
Every swatch is left on for 10 minutes at room temperature.
Directly on the swatches and without rinsing, the neutralizing treatment is repeated in the same way, leaving on for other 10 minutes, for total 20 minutes.
After the left on period, the formulation in excess is rinsed with running water and the curlers are dried with a drier for 30 minutes. […]
Data set [9] can be described thus: Sensory properties of hair treated with a reducing treatment after coloring (Example 10). The settings on record: 5 g of 2% water solution, 2 x 7.30 minutes after bleaching, coloring and reducing treatment; washed with Sodium Laureth-2 sulfate 15% pH 7.5.
Procedure: Four swatches of level 7 natural hair, standard weight and width, are bleached two times using the Davines Mask Hair Bleaching Powder mixed with an activator, hydrogen peroxide emulsion, Davines Activator 40 vol. in a 1:2 ratio.
The above described mixture is applied on single swatches in order to obtain a homogenous distribution of the product on the hair fibers.
The swatches are covered with an aluminum foil and left on for 50 minutes at room temperature. At the end of the left on period, the swatches are rinsed and carefully washed with a shampoo of the Davines Essential Hair Care SOLU line and dried. The entire process is repeated two times until to obtain the lightening level 11 according to Davines Color Manual.
The swatches as above treated are colored with Davines Mask with Vibrachrom 10.01 mixed with Davines Activator 20 vol. in a ratio 1:1.5 as disclosed in the Davines manual.
The coloration was applied to every swatch in an amount to obtain an homogeneous distribution of the product on all the hair fibers of the single swatch.
At the end of the coloration step, after rinsing with shampoo SOLU of the Essential Hair Care line of Davines and drying, the swatches are treated with 5 g of the Davines reducing formulation called Balance Curling System #1 and left on for 30 minutes at room temperature.
Then, the swatches are rinsed with water and treated as follows: […]
The nature of another data set: Water solubility. It is filed as physicochemical.

With `CN(C)CCNC(=O)CCCCC1CCSS1.O=C(O)/C=C\C(=O)O` (stereo not drawn) [Liposol maleate, 1,2-dithioane-3-pentanamide, N-(2-dimethylamino) ethyl salified with a mole of maleic acid], in data set [1], the “silkiness, smoothness and compactness of the swatches (sensorial analysis, ranking)” value is “better in relation to compactness, silkiness and smoothness”. For the same compound, the “Tensile Strength N” value in data set [2] came out at 0.98 ± 0.11 N; in data set [3] (3.5 g 12% in water added to 20 g bleaching powder + 40 g Activator 20 vol., On Protection = 12% Liposol maleate + 8% maleic acid, five measurements, 6 cm hair, 0.5 mm/sec), 1.06 ± 0.13 N; in data set [7] (2.5 g as neutralizing solution after perm (maleic acid, liposol maleate 2%; Olaplex, On Protection 12% liposol maleate/8% maleic acid 10% water solution), 2 x 7.30 minutes, 40 washings) it was 1.04 ± 0.16 N. Further, in data set [3] (3.5 g 12% in water added to bleaching mixture), the “resistance to hair breakage in comparison to other treatments (in words)” value is on record as “clearly show an improvement”. The “color retention after the reducing treatment (evaluated by skilled technicians)” value in data set [4] was “more intensive and vibrating”. Besides, in data set [5], the “limpidity / color intensity of the rinsing water (ranking)” value is “third”. For the same compound, the “softness and silkiness (ranking by skilled technicians)” value in data set [6] is recorded as “regard as preferred”. Besides, the “protection of the swatches (conclusion in words)” value in data set [7] (in comparison with Olaplex® Bond Multiplier No 1 and Davines Bouclè Biowaving System Extra Delicate Neutralizer) is on record as “more protected”. In addition, the “maintenance of the deviousness of the curls after repeated washings (ranking by skilled personnel)” value in data set [8] is listed as “maintain the deviousness of the curls in a lower degree”. Moreover, in [9], the “chromatic differences / color retention” value is recorded as “do not present significant chromatic differences”.
Consider `O=C(O)/C=C\C(=O)O` [maleic acid, cis-butendioic acid], for which the solubility in water result in “Water solubility” is recorded as “water soluble”.
